Target: cAMP and cAMP-inhibited cGMP 3',5'-cyclic phosphodiesterase 10A (Homo sapiens, UniProt Q9Y233)
Assay: Scintillation Proximity Assay : PDE10 activity of the compounds of the present invention was determined using a Scintillation Proximity Assay (SPA)-based method similar to the one previously described (Fawcett, L. et al., Proc Natl Acad Sci USA (2000) 97(7):3702-3707). The human PDE10A full length assay was performed in 96-well micro titer plates. The reaction mixture of 50 μl contained 20 mM HEPES pH=7.5/10 mM MgCl2/0.05 mg/ml BSA (Sigma cat. # A-7906), 50 nM cGMP (Sigma, cat. # G6129) and 50 nM [3H]-cGMP (GE Healthcare, cat. # TRK392 S.A. 13.2 Ci/mmol), 3.75 ng/well PDE10A enzyme (Enzo Life Science, Lausen, Switzerland cat #SE-534) with or without a specific test compound.

cAMP and cAMP-inhibited cGMP 3',5'-cyclic phosphodiesterase 10A, sequence (Q9Y233 whole entry): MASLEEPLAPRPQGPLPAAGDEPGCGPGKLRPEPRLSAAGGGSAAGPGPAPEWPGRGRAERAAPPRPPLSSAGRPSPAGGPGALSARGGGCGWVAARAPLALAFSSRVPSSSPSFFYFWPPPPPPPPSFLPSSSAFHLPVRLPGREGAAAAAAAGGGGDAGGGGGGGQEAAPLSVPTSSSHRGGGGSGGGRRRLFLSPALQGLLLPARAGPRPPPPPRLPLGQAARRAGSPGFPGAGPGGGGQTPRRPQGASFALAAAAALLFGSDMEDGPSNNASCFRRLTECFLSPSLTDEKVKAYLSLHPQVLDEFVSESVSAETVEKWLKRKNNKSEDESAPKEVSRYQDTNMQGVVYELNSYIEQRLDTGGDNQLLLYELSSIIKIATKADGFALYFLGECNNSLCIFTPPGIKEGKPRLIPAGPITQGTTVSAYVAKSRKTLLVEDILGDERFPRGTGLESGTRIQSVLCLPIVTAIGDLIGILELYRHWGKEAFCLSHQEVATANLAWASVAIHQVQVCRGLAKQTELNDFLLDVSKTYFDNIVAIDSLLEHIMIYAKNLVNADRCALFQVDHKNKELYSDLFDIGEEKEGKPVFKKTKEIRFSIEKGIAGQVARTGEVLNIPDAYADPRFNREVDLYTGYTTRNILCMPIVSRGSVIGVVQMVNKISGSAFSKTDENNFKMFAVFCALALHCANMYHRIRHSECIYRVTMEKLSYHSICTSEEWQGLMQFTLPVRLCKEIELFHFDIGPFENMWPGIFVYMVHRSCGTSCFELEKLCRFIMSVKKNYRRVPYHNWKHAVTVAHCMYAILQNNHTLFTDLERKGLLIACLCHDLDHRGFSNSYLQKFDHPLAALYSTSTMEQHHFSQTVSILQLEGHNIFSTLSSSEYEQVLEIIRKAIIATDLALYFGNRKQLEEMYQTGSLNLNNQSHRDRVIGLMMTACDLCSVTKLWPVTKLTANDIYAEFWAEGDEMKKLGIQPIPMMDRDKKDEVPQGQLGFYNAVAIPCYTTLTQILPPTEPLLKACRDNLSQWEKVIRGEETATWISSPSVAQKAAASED

Structure (SMILES)	IC50
Cn1ncc(NC(=O)c2nc(C3CC3)cnc2Nc2cncnc2)c1C(=O)NC1COC1	6.6 nM
CC(CO)CNC(=O)c1c(NC(=O)c2nc(C3CC3)cnc2Nc2cncnc2)cnn1C (centres undefined)	1.5 nM
CN(C)C(=O)c1c(NC(=O)c2nc(C3CC3)cnc2Nc2cncnc2)cnn1C	32.2 nM
CNC(=O)c1c(NC(=O)c2nc(C3CC3)cnc2Nc2cncnc2)cnn1CC(F)(F)F	27 nM
COCc1ccc(NC(=O)c2nc(C3CC3)cnc2Nc2cncnc2)c(C(=O)NCC(C)(C)O)n1	0.5 nM
COCCOc1ccc(NC(=O)c2nc(C3CC3)cnc2Nc2cncnc2)c(C(=O)NCC(C)(C)O)c1	0.7 nM
CN(C(=O)c1ncccc1NC(=O)c1nc(C2CC2)cnc1Nc1cncnc1)C1CCOCC1	425 nM
CN(CC(F)(F)F)C(=O)c1ncccc1NC(=O)c1nc(C2CC2)cnc1Nc1cncnc1	8.1 nM
CN(C(=O)c1ncccc1NC(=O)c1nc(C2CC2)cnc1Nc1cncnc1)C1CC1	26.8 nM
CC1CCCCN1C(=O)c1ncccc1NC(=O)c1nc(C2CC2)cnc1Nc1cncnc1 (centres undefined)	15.9 nM
CC(C)(O)CNC(=O)c1cc(C#N)ccc1NC(=O)c1nc(C2CC2)cnc1Nc1cncnc1	0.7 nM
CNC(=O)c1cc(NC(C)=O)ccc1NC(=O)c1nc(C2CC2)cnc1Nc1cncnc1	0.4 nM
CNC(=O)c1nc(C)ncc1NC(=O)c1nc(C2CC2)cnc1Nc1cncnc1	19.3 nM
CNC(=O)c1ccc(F)c(F)c1NC(=O)c1nc(C2CC2)cnc1Nc1cncnc1	1.8 nM

Source: ChEMBL document CHEMBL3639182, “Nitrogen containing heteroaryl compounds” (2014)
